{
  "source": "patent US20080200393A1",
  "about": "“Method and Composition For Treating Angiogenesis and For Preventing Cancer Progression and Metastasis Comprising a Prostate Secretory Protein (Psp94) Family Member” (Ambrillia Biopharma Inc., priority 2004, published 2008)",
  "molecules": {"B1": {"name": "PSP94: Prostate secretory protein of human seminal fluid, 10.7 kDa, 10 cysteine residues; wild type, 94 amino acids (protein, UniProt P08118 21-114, looked up)", "Beta-microseminoprotein": "SCYFIPNEGVPGDSTRKCMDLKGNKHPINSEWQTDNCETCTCYETEISCCTLVSTPVGYDKDNCQRIFKKEDCKYIVVEKKDPKKTCSVSEWII"}},
  "key": {"proMMP-2": {"system": "proMMP-2", "assay": "Gelatin zymography of HUVEC conditioned media", "assay_type": "cell-based, Human", "settings": "HUVEC, serum-free media", "protocol": "Zymography. Zymography is a technique generally used to analyze the activity of matrix metalloproteinases (MMPs) in biological samples. It involves the electrophoretic separation of proteins under denaturing (Sodium Dodecyl Sulfate (SDS)) but non-reducing conditions through a polyacrylamide gel containing gelatin (for example, 10% gel containing 1 mg/ml gelatin for MMP-9 and MMP-2 assays). The resolved proteins are re-natured by exchanging SDS with a non-ionic detergent such as Triton X-100 and the gel is incubated in an incubation buffer for activation of MMP-2 and MMP-9 (for example at 37° C. for 18 hrs). The gel is stained with Coomassie blue and the MMP-2 and MMP-9 bands may be visualized as clear bands against a blue background (i.e., the MMPs degrade the gelatin and are visualized as clear bands; pro MMP-2 is 68 kDa and pro-MMP-9 is 92 kDa). These bands can be quantified using densitometry. For example, prior to stimulation, quiescent HUVEC were serum-starved for 16 h in the presence or absence of PCK3145 or PD98059 and then stimulated with VEGF. The conditioned media were collected 24 h after stimulation, and clarified by centrifugation. Identical volume of conditioned media were mixed with non reducing Laemmli sample buffer and subjected to 7.5% SDS-polyacrylamide gels containing 1 mg/ml gelatin (Sigma). The gels were then incubated for 30 min at room temperature twice in 2.5% (v/v) Triton X-100 and rinsed five times in doubly distilled water. The gels were incubated at 37° C. for a further 18 h in 200 mM NaCl/5 mM CaCl2/0.02% (v/v) Brij-35/50 mM Tris/HCl buffer (pH 7.6), then stained with 0.1% Coomassie Brilliant Blue R-250, followed by destaining in 10% (v/v) acetic acid/30% (v/v) methanol in water. Gelatinolytic activity was detected as unstained bands on a blue background.\nThe effect of the PCK3145 derivative (SEQ ID NO.:7) on MMP extracellular levels was thus assessed by gelatin-zymography in the conditioned media of serum-starved HUVEC. After 16 hours of starvation, HUVEC were stimulated with VEGF in the presence or not of the PCK3145 derivative. […]"}, "ERK [1]": {"system": "ERK", "assay": "Intrinsic effect on ERK phosphorylation (Western blot)", "assay_type": "cell-based", "protocol": "The induction of the MAPK pathway by the PCK3145 derivative is further confirmed by the rapid and transient induction of ERK phosphorylation between 5-10 minutes (FIG. 8B) and is shown to be dose-dependent (FIG. 8C). Finally, the effects of the PCK3145 derivative were also compared to those of a scrambled peptide."}, "ERK [2]": {"system": "ERK", "assay": "Induced ERK phosphorylation in HUVEC (Western blot)", "assay_type": "cell-based, Human", "protocol": "Cell culture. Human umbilical vein endothelial cells (HUVEC) and pulmonary aortic smooth muscle cells (PASMC) were obtained from Clonetics and maintained in endothelial cell basal medium-2 (EBM-2; Clonetics) and smooth muscle medium-2 (SmGM-2; Clonetics), respectively. Cells were cultured at 37° C. under a humidified atmosphere containing 5% CO2. For experimental purposes, cells were plated in 8 100-mm plastic dishes at 5,000 cells/cm^2 and were grown to confluence before overnight serum starvation. Cells were treated with vehicle or with a PCK3145 derivative diluted in 0.1 N NaOH, and stimulated with 50-100 ng/ml VEGF or PDGF, with 10 ng/ml of bFGF (basic fibroblast growth factor) or with 1 μM S1P (sphingosine-1-phosphate).\n(§1) Immunoprecipitation and immunoblotting procedures. After treatment, cells were washed once with phosphate-buffered saline (PBS) containing 1 mM sodium orthovanadate and were incubated in the same medium for 1 h at 4° C. The cells were solubilized on ice in lysis buffer (150 mM NaCl, 10 mM Tris-HCl, pH 7.4, 1 mM EDTA, 1 mM EGTA, 0.5% Nonidet P-40, 1% Triton X-100) containing 1 mM sodium orthovanadate. The cells were then scraped from the culture dishes and the resulting lysates were clarified by centrifugation at 10,000 g for 10 min; Protein concentrations were determined using the micro bicinchoninic acid method (Pierce). For immunoprecipitation studies, lysates were clarified by a 1 h incubation at 4° C. with a mixture of Protein A/Protein G Sepharose beads. After removal of the Sepharose beads by low-speed centrifugation, identical amounts of protein (200 μg) from each sample were transferred to fresh tubes and incubated in lysis buffer overnight at 4° C. in the presence of 2 μg/ml of specific antibodies. Immunocomplexes were collected by incubating the mixture with 25 μl (50% suspension) of Protein A- (rabbit primary antibody) or Protein G- (mouse primary antibody) Sepharose beads, for 2 h. Nonspecifically-bound material was removed by washing the beads three times in 1 ml of lysis buffer containing 1 mM sodium orthovanadate, and bound material was solubilized in 25 μl of two-fold concentrated Laemmli sample buffer (125 mM Tris-HCl (pH 6.8), 20% glycerol, 4% SDS, 10% β-mercaptoethanol, and 0.00125% bromphenol blue), boiled 5 min, and resolved by SDS-PAGE. The proteins were transferred onto polyvinylidene difluoride (PVDF) membranes, blocked 1 h at room temperature with Tris-buffered saline/Tween 20 (147 mM NaCl, 20 mM Tris/HCl, pH 7.5, and 0.1% Tween 20) containing 2% bovine serum albumin and incubated overnight at 4° C. with primary antibody. […] The immunoreactive bands were quantified by scanning densitometry (Molecular Dynamics).\nVEGF is a strong activator of ERKs (Extracellular-signal-Regulated protein Kinases) 1 and 2 via VEGF receptor 2. In order to test the ability of the PCK3145 derivative in potentially antagonizing VEGF-mediated ERK phosphorylation, serum-starved quiescent endothelial cells (HUVEC) were incubated with vehicle (phosphate-buffered saline (PBS) pH 7.4) or PCK3145 derivative (300 μg/ml) for 24 h and then stimulated with VEGF, bFGF (basic Fibroblast Growth Factor) or S1P (sphingosine-1-phosphate). Cells were washed with PBS containing NaF/Na3VO4 and incubated in the same medium buffer for 1 h at 4° C. The cells were scraped from the culture dishes and the resulting lysates clarified by centrifugation. Western blotting and immunodetection using anti-phosphoERK and anti-ERK antibodies was then performed."}, "VEGFR-2": {"biological_target": "T1, VEGFR-2 (Homo sapiens, UniProt P35968)", "T1 construct": "host or cells: HUVEC", "T1 sequence (P35968 20-1356)": "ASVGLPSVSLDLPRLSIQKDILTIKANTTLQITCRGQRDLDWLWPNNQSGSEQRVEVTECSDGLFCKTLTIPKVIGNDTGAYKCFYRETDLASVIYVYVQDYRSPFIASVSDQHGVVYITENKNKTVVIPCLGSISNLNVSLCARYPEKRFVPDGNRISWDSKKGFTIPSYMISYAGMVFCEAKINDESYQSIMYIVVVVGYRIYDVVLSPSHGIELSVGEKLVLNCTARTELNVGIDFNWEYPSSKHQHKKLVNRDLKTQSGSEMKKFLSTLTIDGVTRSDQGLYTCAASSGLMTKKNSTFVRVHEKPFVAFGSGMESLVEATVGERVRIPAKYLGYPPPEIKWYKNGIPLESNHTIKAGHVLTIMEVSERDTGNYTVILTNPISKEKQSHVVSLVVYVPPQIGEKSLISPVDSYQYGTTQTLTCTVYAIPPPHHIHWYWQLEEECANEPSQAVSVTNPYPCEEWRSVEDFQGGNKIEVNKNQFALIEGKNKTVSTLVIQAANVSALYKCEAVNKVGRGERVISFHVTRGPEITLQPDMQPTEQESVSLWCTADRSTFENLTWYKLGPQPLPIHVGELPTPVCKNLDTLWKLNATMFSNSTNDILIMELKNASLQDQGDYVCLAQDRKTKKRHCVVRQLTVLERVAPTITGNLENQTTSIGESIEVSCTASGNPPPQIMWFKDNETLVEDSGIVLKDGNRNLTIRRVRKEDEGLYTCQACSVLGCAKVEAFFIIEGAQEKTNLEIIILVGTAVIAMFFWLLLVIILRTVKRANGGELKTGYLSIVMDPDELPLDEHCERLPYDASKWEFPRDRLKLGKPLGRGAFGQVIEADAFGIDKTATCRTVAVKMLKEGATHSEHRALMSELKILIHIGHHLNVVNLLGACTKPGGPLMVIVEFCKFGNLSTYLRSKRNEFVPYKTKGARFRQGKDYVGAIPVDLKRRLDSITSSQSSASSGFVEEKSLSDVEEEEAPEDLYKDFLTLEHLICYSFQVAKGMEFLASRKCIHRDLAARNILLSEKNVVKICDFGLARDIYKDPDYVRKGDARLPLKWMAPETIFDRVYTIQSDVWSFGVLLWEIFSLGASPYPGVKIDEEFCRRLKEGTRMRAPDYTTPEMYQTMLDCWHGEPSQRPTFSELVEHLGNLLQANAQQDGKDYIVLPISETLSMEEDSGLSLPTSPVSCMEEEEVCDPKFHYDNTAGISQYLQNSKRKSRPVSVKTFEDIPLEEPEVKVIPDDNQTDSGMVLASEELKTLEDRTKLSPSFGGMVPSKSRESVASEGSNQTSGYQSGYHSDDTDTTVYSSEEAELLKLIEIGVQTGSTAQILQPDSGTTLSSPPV", "assay": "VEGF-induced VEGFR-2 phosphorylation in HUVEC (immunoprecipitation, Western blot)", "assay_type": "cell-based", "protocol": "as §1, with “SDS-PAGE.” for “SDS-PAGE. The proteins were transferred onto polyvinylidene difluoride (PVDF) membranes, blocked 1 h at room temperature with Tris-buffered saline/Tween 20 (147 mM NaCl, 20 mM Tris/HCl, pH 7.5, and 0.1% Tween 20) containing 2% bovine serum albumin and incubated overnight at 4° C. with primary antibody.”\nThe multifunctionality of VEGF at the cellular level results from its ability to initiate a diverse, complex and integrated network of signaling pathways via its major receptor, VEGFR-2. […] After each treatment, equal amounts of protein were immunoprecipitated with anti-VEGFR-2 polyclonal antibodies and analysed by Western blotting."}, "HUVEC": {"system": "HUVEC", "assay": "HUVEC migration assay (modified Boyden chambers, gelatin-coated filters)", "assay_type": "cell-based, Human", "settings": "300 μg/ml", "protocol": "Migration Assays. Transwells filters (8-μm pore size; Costar, Cambridge, Mass.) were pre-coated with 0.5% gelatin/PBS for 24 h at 4° C. The transwells were then washed with PBS and assembled in 24-well plates. The upper chamber of each transwell was filled with 100 μl of HUVEC (1×10^6 cells/ml) and cells were allowed to adhere for 1 h. Cells were then treated for 2 h by adding 100 μl of 2-fold concentrated drug solution prepared in serum-free medium into the upper chamber and 600 μl of the drug solution into the lower chamber. Migration was initiated by adding VEGF (10 ng/ml), or S1P (1 μM) to the lower chamber. The plate was placed at 37° C. in 5% CO2/95% air for 4 h. Cells that had migrated to the lower surface of the filters were fixed with 10% formalin phosphate and stained with 0.1% Crystal Violet/20% (v/v) methanol. The migration was quantified using computer-assisted imaging and data are expressed as the average density of migrated cells per four fields (magnification×50).\nCells were plated onto gelatin-coated filters inserted in modified Boyden chemotactic chambers. The effect of PCK3145 on basal migration and on VEGF-induced migration was monitored by the number of cells that had migrated comparatively to untreated control cells. HUVEC were dislodged from the flasks by trypsinization, washed and resuspended in serum-free media. Cells were placed onto gelatin-coated filters inserted in chambers and incubated at 37° C., 5% CO2 for 30 min to allow adequate anchoring to the filters. The monolayers were then exposed to serum-free media containing PCK3145 (300 μg/ml) added within the upper and lower compartment of the chambers. After 2 h, VEGF (50 ng/ml) was added in the lower chamber as a chemoattractant. Cell migration was allowed to proceed for another 3 h. Filters were then fixed, stained, and the migrated cells quantified by microscopy as described in the Methods section. […] The effect of. PCK on S1P-induced HUVEC migration was also measured, but no inhibition was observed (not shown) in this particular assay."}, "tumor cells": {"system": "tumor cells", "settings": "U.S. Pat. No. 5,428,011; cited from earlier work"}, "skeletal metastasis": {"system": "skeletal metastasis", "settings": "WO03/039576; cited from earlier work"}, "FSH": {"system": "FSH", "settings": "Thakur et al., 1981; cited from earlier work"}, "FSH receptor": {"biological_target": "T2, FSH receptor (Homo sapiens, UniProt P23945)", "T2 construct": "host or cells: testicular membrane preparations", "T2 sequence (P23945 18-695)": "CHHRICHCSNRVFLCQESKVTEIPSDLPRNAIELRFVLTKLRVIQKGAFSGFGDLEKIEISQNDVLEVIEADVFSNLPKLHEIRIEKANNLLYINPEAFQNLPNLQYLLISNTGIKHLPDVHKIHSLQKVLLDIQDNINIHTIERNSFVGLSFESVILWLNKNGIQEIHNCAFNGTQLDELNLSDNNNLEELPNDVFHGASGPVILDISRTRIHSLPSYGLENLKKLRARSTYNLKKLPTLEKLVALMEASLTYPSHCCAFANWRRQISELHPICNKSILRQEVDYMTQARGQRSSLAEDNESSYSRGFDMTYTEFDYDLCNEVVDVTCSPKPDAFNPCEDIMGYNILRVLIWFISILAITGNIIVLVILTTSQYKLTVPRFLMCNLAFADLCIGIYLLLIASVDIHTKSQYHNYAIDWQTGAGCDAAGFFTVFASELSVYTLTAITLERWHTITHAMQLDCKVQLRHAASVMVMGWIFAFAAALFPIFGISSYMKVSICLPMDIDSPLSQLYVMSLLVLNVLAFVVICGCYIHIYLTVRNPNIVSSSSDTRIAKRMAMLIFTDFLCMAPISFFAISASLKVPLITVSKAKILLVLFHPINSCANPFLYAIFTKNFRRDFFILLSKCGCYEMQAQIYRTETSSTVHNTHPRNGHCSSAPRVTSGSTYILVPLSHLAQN", "settings": "testicular membrane preparations; Vijayalakshmi et al., 1981; cited from earlier work"}},
  "note": "Where no end group is shown, it is not given here. The star is where a group is joined. Acm = CC(=O)NC*",
  "data": [
    {"molecule": "COc1cccc(-c2cc(=O)c3ccccc3o2)c1N", "note": "[PD98059, reference compound]", "values": [
      {"measurement": "VEGF-induced proMMP-2 extracellular levels", "setting": "proMMP-2", "value": "significantly decreased"},
      {"measurement": "induction of ERK phosphorylation by the PCK3145 derivative", "setting": "ERK [1]; MAPK inhibitor added", "value": "antagonized"}
    ]},
    {"molecule": "TC(Acm)ENC(Acm)TETQWC(Acm)ETDY [scrambled peptide, reference compound]", "values": [
      {"measurement": "VEGF-induced ERK phosphorylation, negative control", "setting": "ERK [2]", "value": "lack of effect"},
      {"measurement": "VEGF-induced VEGFR-2 phosphorylation, negative control", "setting": "VEGFR-2", "value": "lack of effect"},
      {"measurement": "induction of ERK phosphorylation", "setting": "ERK [1]; compared to the PCK3145 derivative", "value": "unable to induce"}
    ]},
    {"molecule": "EWQTDNCETCTCYET (cysteine pairing not given here) [PCK3145, PSP94 fragment, 15 amino acids]", "values": [
      {"measurement": "basal cell migration", "setting": "HUVEC", "value": "no significant effect"},
      {"measurement": "VEGF-induced cell migration", "setting": "HUVEC; VEGF 50 ng/ml", "value": "no significant effect"}
    ]},
    {"molecule": "B1", "values": [
      {"measurement": "growth of tumor cells", "setting": "tumor cells", "value": "inhibits"},
      {"measurement": "development of skeletal metastasis", "setting": "skeletal metastasis", "value": "reduces"},
      {"measurement": "FSH levels", "setting": "FSH", "value": "lower"},
      {"measurement": "binding of FSH to its receptor", "setting": "FSH receptor", "value": "interfere"}
    ]}
  ]
}
